One test has as its target T1, human plasma factor Xa (Homo sapiens, UniProt P01008).
T1 construct: 10 nM human plasma factor Xa; from tissue; host or cells: human plasma
Put plainly: Antithrombin-dependent factor Xa inhibition (residual factor Xa activity, Spectrozyme fXa substrate). Format: biochemical. The following applies: tested at 1-50 μM. The protocol:
(§1) Methods. To assay anticoagulant activity, compounds were incubated with 1 μM human plasma antithrombin and 10 nM human plasma factor Xa in 20 mM sodium phosphate buffer, pH 6.0, at 25° C. for 10 min. After incubation, residual factor Xa activity was measured spectrophotometrically using Spectrozyme fXa substrate. From the decrease in residual factor Xa activity as a function of sulfated bis-cyclic agent concentration, the anticoagulant potential of each sample was calculated.
(§2) A key test of in vitro anticoagulant activity is the inhibition of Factor Xa., a critical enzyme involved in blood clotting.
(§3) Each peak was isolated and its factor Xa inhibition potential was determined at concentrations in the range of 1-50 μM.

Test [1] relates to T2, human plasma factor Xa (Homo sapiens).
T2 construct: 10 nM human plasma factor Xa; from tissue; host or cells: human plasma
The test is described as above. Format: biochemical. The following applies: 10 μM sulfated compound; 1 μM human plasma antithrombin, 10 nM human plasma factor Xa, pH 6.0, 25° C., 10 min. The protocol:
as §1, §2, §3

T1 sequence (P01008 33-464): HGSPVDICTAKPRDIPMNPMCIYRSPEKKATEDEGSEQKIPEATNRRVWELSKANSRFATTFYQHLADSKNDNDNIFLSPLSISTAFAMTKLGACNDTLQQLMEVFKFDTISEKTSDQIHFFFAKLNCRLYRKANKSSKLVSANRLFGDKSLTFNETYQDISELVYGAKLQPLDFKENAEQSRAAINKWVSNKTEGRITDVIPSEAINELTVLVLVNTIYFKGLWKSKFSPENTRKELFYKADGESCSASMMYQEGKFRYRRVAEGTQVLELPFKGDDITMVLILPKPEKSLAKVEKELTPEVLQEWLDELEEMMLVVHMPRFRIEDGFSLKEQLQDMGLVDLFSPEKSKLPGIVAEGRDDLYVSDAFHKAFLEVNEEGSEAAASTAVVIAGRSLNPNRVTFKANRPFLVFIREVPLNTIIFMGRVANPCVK
T2 sequence (P01008 33-464): as above

Take “(3S)-6,7-bis-sulfonato-2-(3,4,5-tris-sulfonato-benzoyl)-1,2,3,4-tetrahydro-isoquinoline-3-carboxylate [Peak P1]”: the “acceleration of the inhibition of human factor Xa by human plasma antithrombin” value at human plasma factor Xa was “greatly accelerates the inhibition”. For the same substance, the “Inhibition (Factor Xa inhibition by sulfated compounds)” value in test [1] amounted to 86%.

Values taken from patent US20070173529A1, “Sulfated bis-cyclic agents” (priority 2003, published 2007).
